“And” between values parts separate entries of the source, which are not always exact repeats. Equal entries are not always repeated. A value given as a limit tells only on which side of the number the result lay.

For series [1], the system named is T. cruzi intracellular amastigotes in H9c2 cells. Description: RoK combination assay with BNZ. It counts as cell-based, Trypanosoma cruzi. As for the experimental part:
The assay was performed following the same experimental procedure mentioned above in the RoK assay. The infected H9c2 cells were treated with final 10 and 50 μM concentrations of BNZ and DMSO before being dispensed into the plates containing the compounds. For the combination with 50 μM BNZ, two plates were incubated for 4 and 24 hours respectively before being fixed. For the combinations with 10 μM BNZ and with DMSO, four plates for each condition were incubated for 4, 24, 48 and 72 hours before being fixed.

In a further series the test system is TcCYP51. To be noted: formerly reported; cited from earlier work.
For series [2], the system named is T. cruzi Tulahuen trypomastigotes. Description: T. cruzi trypomastigote assay (Cell Titer-Glo viability, ATP luminescence). Particulars: pIC50 = -log10 IC50 in molar units. It counts as cell-based, Trypanosoma cruzi. A digest of the protocol:
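Compounds were tested in dose response or once at a final 5 μM against 5 × 10^4 trypomastigotes per well (DMEM, 2% FBS), collected on days 5–8 from LLC-MK2 infected cultures. ATP luminescence via CellTiter-Glo reports live parasites; DMSO defines 0% and cell-free wells 100% effect.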
In general terms: In ATP-based viability assays light output follows the ATP content of the culture.

The test system of series [3] is H9c2 (rat cardiomyocytes). Description: RoK assay, number of host cells nuclei (drug-related cytotoxicity, H9c2 output, Cmin_Tox). Particulars: H9c2 host cells. As for the experimental part: For this high-content intracellular imaging assay, H9c2 cells were seeded in 225 cm^2 T- FLASK in DMEM with 10% FBS for 4 h to allow attachment. T. cruzi trypomastigotes, collected at days 5 to 8 after infection from LLC-MK2 parasite infected cultures, were allowed to swim out for 4 h at 37°C from a centrifuged pellet (1,600 x g / 10 min). Trypomastigotes were then collected and counted in a CASY Cell Counter using the 60 μm capillary. […] Cells were washed once with PBS before incubation of the infected H9c2 monolayer with trypsin (Life-Technologies) to detach cells from the flask. Cells were counted in a CASY Cell Counter, using the 150 μm capillary, and their density set at 5 x 10^4 cells/mL in supplemented DMEM. Infected H9c2 were dispensed into 384-well plates at 50 μL per well using a Multidrop Combi dispenser. Control wells used to determine a 100% parasitic growth (full 6th column of each plate) were left untreated, whereas not infected cells were added in the control wells used as 0% parasite growth (or 100% parasite growth inhibition; full 18th column of each plate). The four plates corresponding to each RoK assay were predispensed for the same mother plate. […] Cultures were then fixed and stained with 50 μL per well of a PBS solution containing 4% formaldehyde and 2 μM DRAQ5 DNA dye (BioStatus, UK). Then plates were read in a PerkinElmer Opera Phenix using a 20x objective, 3 fields per well. DRAQ5 signal was detected using 640 nm excitation laser and a 690/50 nm emission detection filter. Automated image analysis was performed with a script developed on Acapella High Content Imaging and Analysis Software (PerkinElmer). Two outputs were provided for each sample well: (1) number of host cells nuclei to determine drug-related cytotoxicity (aka H9c2) and (2) number of amastigotes per cell as infection level measurement (aka AM/CELL). Each output is plotted as a time course for each compound at every concentration. This assay was adapted from Alonso-Padilla et al. and Peña et al..
• ME (Maximum Effect) is the maximum percentage of parasite burden reduction reached by any compound concentration. Compounds that decrease the initial parasite load will show a positive value of ME, whereas compounds that allow the progression of infection will render a negative ME value. […] It is calculated for the MCC50 (t50%_MCC50) and for the maximum concentration (t50%_Cmax). […] The value of this parameter is not either interpolated or extrapolated, and it refers to the first experimental time-course point at which a 50% of effect is reached or exceeded. • tlag defines the time elapsed for one particular concentration to reduce parasite burden between two consecutive points at any moment of the time course. It is calculated for the MCC50 (tlag_MCC50) and for the maximum concentration (tlag_Cmax). The value of this parameter is not either interpolated or extrapolated, and it refers to the first experimental time-course point of a positive slope in the normalised plot (i.e. %Cidal_Response). • Cmin_Tox (Minimal CytoToxic Concentration) is the lowest compound concentration that is reducing the number of host mammalian cells below 50% of initial cell density. Cytotoxic compounds may mislead a bona fide antiparasitic action. Therefore, this descriptor is used to flag this kind of compounds and warn about the genuine meaning of the rest of descriptors.

In the case of `O=C(Cn1ccnc1[N+](=O)[O-])NCc1ccccc1` [BNDZ 10], the AM/CELL in series [1] (combo BNDZ 10 with unnamed compound at Concentration 16.6667, time 4) is 2.035 and 2.023; in series [1] (combo BNDZ 10 with unnamed compound at Concentration 16.6667, time 24), 1.123 and 1.3558; in series [1] (combo BNDZ 10 with unnamed compound at Concentration 16.6667, time 48), 0.3934 and 0.4677; in series [1] (combo BNDZ 10 with unnamed compound at Concentration 16.6667, time 72), 0.5411 and 0.6092; in series [1] (combo BNDZ 10 with unnamed compound at Concentration 50, time 4) it was 1.931 and 1.78; in series [1] (combo BNDZ 10 with unnamed compound at Concentration 50, time 24) it was 0.8406 and 1.092. For the same molecule, the AM/CELL in series [1] (combo BNDZ 10 with unnamed compound at Concentration 50, time 48) is 0.412 and 0.3872; in series [1] (combo BNDZ 10 with unnamed compound at Concentration 50, time 72) it was 0.6445 and 0.5238.

Regarding `Cc1ccc(S(=O)(=O)Nc2ccc(CN3CCN(C(=O)c4cccc(C#N)c4)CC3)cc2)cc1.O=C(O)C(F)(F)F` [TCMDC-143497], the “CYP51 pIC50” value in the series with TcCYP51 is less than 4. Moreover, in series [2] (48 hours incubation), the “Trypomastigotes pIC50 48 hours” value is on record as less than 4.3. The “Trypomastigotes pIC50 72 hours” value in series [2] (72 hours incubation) is 4.9. In series [3], the “Cmin_Tox” value was greater than 50 µM.

The values above are taken from paper PMC8318231, “Rate-of-Kill (RoK) assays to triage large compound sets for Chagas disease drug discovery: Application to GSK Chagas Box” (PLoS Neglected Tropical Diseases, 2021).
